Laboratory results taken from paper PMC2944806, “HLA Class I Binding of HBZ Determines Outcome in HTLV-1 Infection” (PLoS Pathogens, 2010).

target: HLA class I molecule B*3501 (Homo sapiens, UniProt P01889, A329T/A93T/A95T/C349S/D201E/D98Y/E176V/E187L/E204Q/E69T/I218V/K202T/L119I/Q94N/R155S/R180L/S121R/S35A/S48A/T118I/V127L/V306I/V36M/Y140S/Y91F); experiment: REVEAL HLA-peptide binding assay, B*3501; settings: assembly of peptide-HLA complex by ELISA with conformation-dependent anti-HLA antibody, relative to positive control peptide for that allele, comparable within an allele only
Description: The REVEAL HLA-peptide binding assay (ProImmune Ltd., Oxford, UK) was used to quantify peptide-HLA binding. For each allele-peptide combination that was tested, assembly of peptide-HLA complexes was quantified by ELISA with a conformation-dependent anti-HLA antibody. Samples of assembling peptide-HLA complexes were taken at a defined time point and snap-frozen in liquid nitrogen prior to analysis. The assembly for each peptide-HLA complex was then compared against a positive control peptide for that allele as the percentage of assembled peptide relative to that control. We selected four HLA class I alleles and 50 HTLV-1 peptides for each allele. The allele choice was based on allele frequency in the Kagoshima database and included 2 A alleles and 2 B alleles as well as alleles for which we knew that the epitope prediction tended to be poor. The 50 HTLV-1 nonamer peptides for each allele were selected to represent a range of predicted binding affinities, from weak to strong binding peptides. They originated from 4 HTLV-1 reference strain proteins: Tax, HBZ, Gag and Polymerase.
Note the binding score is with respect to a reference good binding peptide for each allele and therefore scores can be compared within an allele but not between alleles.

Sequence | Score (experimentally measured binding affinity, % binding compared to control peptide) [%]
LVEELVDGL [HTLV-1 nonamer peptide] | 0
EPGPSSYDF [HTLV-1 nonamer peptide] | 102.27
LASLLPKGY [HTLV-1 nonamer peptide] | 98.24
WTINHLNVL [HTLV-1 nonamer peptide] | 1.04
QAAPGSPQF [HTLV-1 nonamer peptide] | 86.5
EPEEDALLL [HTLV-1 nonamer peptide] | 11.92
YISQDFLNM [HTLV-1 nonamer peptide] | 0
FPTQRTSKT [HTLV-1 nonamer peptide] | 81.35
FPQCTILQY [HTLV-1 nonamer peptide] | 103.38
CPINYSLLA [HTLV-1 nonamer peptide] | 102.68
LPTTLFQPA [HTLV-1 nonamer peptide from Tax] | 119.5
YILWDKQIL [HTLV-1 nonamer peptide] | 0
CPLCQDPTH [HTLV-1 nonamer peptide] | 36.7
ELVDGLLSL [HTLV-1 nonamer peptide] | 0
WPLLPHVIF [HTLV-1 nonamer peptide] | 49.66
WTFTDGTPM [HTLV-1 nonamer peptide] | 137.29
LLQEKEDLM [HTLV-1 nonamer peptide] | 0
EEEKQIAEY [HTLV-1 nonamer peptide] | 8.99
DPILRSLAY [HTLV-1 nonamer peptide] | 72.18
EPEPEEDAL [HTLV-1 nonamer peptide] | 28.71
MQELGIDGY [HTLV-1 nonamer peptide] | 48.1
LPEDCLPTT [HTLV-1 nonamer peptide] | 52.2
WALPELQAL [HTLV-1 nonamer peptide] | 73.45
LTPPITHTT [HTLV-1 nonamer peptide] | 0

target: T1, HLA class I molecule A*0201 (Homo sapiens, UniProt P04439, D140Y/D185E/D98H/E176V/E277Q/G131W/G231S/I119V/I121R/I166T/I218V/L300P/L318F/N151K/N90K/P208A/P217A/Q86G/Q94H/R138H/R169H/T345S); experiment: not given; assay type: binding; settings: REVEAL assay, assembly of peptide-HLA complex by ELISA with conformation-dependent anti-HLA antibody, relative to positive control peptide for that allele, comparable within an allele only
T1 construct: purchased ProImmune Ltd., Oxford, UK

Sequence | Score (experimentally measured binding affinity, % binding compared to control peptide) [%]
AAGAALIPV [HTLV-1 nonamer peptide] | 34.35
LVEELVDGL [HTLV-1 nonamer peptide] | 2.64
LLITPVLQL [HTLV-1 nonamer peptide] | 114.87
QLLASAVLL [HTLV-1 nonamer peptide] | 100.23
TLYRLHVWV [HTLV-1 nonamer peptide] | 73.87
QLGAFLTNV [HTLV-1 nonamer peptide] | 80.99
LLYKISLTT [HTLV-1 nonamer peptide] | 78.05
FMQTIRLAV [HTLV-1 nonamer peptide from Gag] | 95.61
YLYQLSPPI [HTLV-1 nonamer peptide from Tax] | 132.52
TLSFPDPGL [HTLV-1 nonamer peptide] | 0
YISQDFLNM [HTLV-1 nonamer peptide] | 10.48
LLLDLPADI [HTLV-1 nonamer peptide] | 77.78
LQYLCSSLV [HTLV-1 nonamer peptide] | 47.17
QLWLAAFAA [HTLV-1 nonamer peptide] | 64.37
ALLGEIQWV [HTLV-1 nonamer peptide from Pol] | 84.64
ILPEDCLPT [HTLV-1 nonamer peptide] | 15.96
QLDSLISEA [HTLV-1 nonamer peptide] | 52.07
TLTAWQNGL [HTLV-1 nonamer peptide] | 54.64
YILWDKQIL [HTLV-1 nonamer peptide] | 39
ELVDGLLSL [HTLV-1 nonamer peptide] | 25.11
ILIQTQAQI [HTLV-1 nonamer peptide] | 79.21
LMGEVNYWQ [HTLV-1 nonamer peptide] | 12.98
QLEGEVESL [HTLV-1 nonamer peptide] | 18.58
LLQEKEDLM [HTLV-1 nonamer peptide] | 46.36
KLLQEKEDL [HTLV-1 nonamer peptide] | 0
LLQYLCSSL [HTLV-1 nonamer peptide] | 45.68
TLGQHLPTL [HTLV-1 nonamer peptide] | 54.56
GIDGYTRQL [HTLV-1 nonamer peptide] | 28.99
YLCSSLVAS [HTLV-1 nonamer peptide] | 42.17
LTPPITHTT [HTLV-1 nonamer peptide] | 31.05

target: T2, HLA class I molecule A*2402 (Homo sapiens, UniProt P04439, D101N/D140Y/D185E/E176V/E190D/F33S/G103R/G107R/I119L/I121M/I306V/K335N/L105A/L180Q/L300P/N151K/N90K/Q86E/Q94H/R106L/R138H/R89G/T104I/T345S/V100E/W191G/Y123F); experiment: not given; assay type: binding; settings: REVEAL assay, assembly of peptide-HLA complex by ELISA with conformation-dependent anti-HLA antibody, relative to positive control peptide for that allele, comparable within an allele only
T2 construct: purchased ProImmune Ltd., Oxford, UK

Sequence | Score (experimentally measured binding affinity, % binding compared to control peptide) [%]
SFLLSHGLI [HTLV-1 nonamer peptide] | 79.27
SYGLLCQTI [HTLV-1 nonamer peptide] | 114.37
GYTRQLEGE [HTLV-1 nonamer peptide] | 35.37
NYSLLASLL [HTLV-1 nonamer peptide] | 105.08
TTPGLIWTF [HTLV-1 nonamer peptide] | 215.15
EYLKRKEEE [HTLV-1 nonamer peptide] | 0
KYKNTLYRL [HTLV-1 nonamer peptide] | 124.9
VSCPEDLLV [HTLV-1 nonamer peptide] | 9.6
PYKRIEELL [HTLV-1 nonamer peptide] | 99.06
WQGRLEAMW [HTLV-1 nonamer peptide] | 2.54
VLQSSSFIF [HTLV-1 nonamer peptide] | 82.42
DLMGEVNYW [HTLV-1 nonamer peptide] | 62.28
VFTLSPVII [HTLV-1 nonamer peptide] | 97.21
KYLYHYLRT [HTLV-1 nonamer peptide] | 2.63
